Converted amounts (≈) assume the structure as drawn. Where two headings read alike, the source gives them in different places.
How the values were obtained:
[1] = test system: Aspergillus fumigatus ATCC 204305; test: Anti-fungal broth microdilution (MIC), fungus A; format: cell-based; details: Aspergillus fumigatus, ATCC204305; filamentous protocol, more than 50% growth inhibition, 48 to 72 h
Experimental: (§1) Anti-fungal activity of selected compounds of the invention was assessed by means of anti-fungal susceptibility tests as follows.
(§2) The antifungal activities of the compounds of the invention against different fungi were measured according to standard broth microdilution methods of the US National Committee for Clinical Laboratory standards (NCCLS) for yeasts (NCCLS document M27-A, 1997) and filamentous fungi (NCCLS document M38-A, 2002).
(§3) Stock solutions of compounds of the invention were freshly prepared on the days of experiments equal to 1.28 mg/10 ml media. Serial dilutions were performed to achieve the following testing concentrations: 64 μg/ml, 32 μg/ml, 16 μg/ml, 8 μg/ml, 4 μg/ml, 2 μg/ml, 1 μg/ml, 0.5 μg/ml, 0.25 μg/ml and 0.125 μg/ml.
(§4) An inoculum of 10^6 CFU/ml of the fungi strain was prepared in the appropriate medium and transferred to test tubes for incubation.
(§5) The method is used to determine the minimum inhibitory concentrations (MIC) of drugs on fungi strains. […] For the filamentous fungi protocol, MIC determination took place after 48 to 72 h of culture at 35° C. and was defined at that concentration which produced more than 50% visible growth inhibition.

[2] = test system: Aspergillus fumigatus 322-384; test: Anti-fungal broth microdilution (MIC), fungus B; format: cell-based; details: Aspergillus fumigatus, 322384; filamentous protocol, more than 50% growth inhibition, 48 to 72 h
Experimental: as §1, §2, §3, §4, §5

[3] = test system: Aspergillus fumigatus 040-200167; test: Anti-fungal broth microdilution (MIC), fungus C; format: cell-based; details: Aspergillus fumigatus, 040200167; filamentous protocol, more than 50% growth inhibition, 48 to 72 h
Experimental: as §1, §2, §3, §4, §5

[4] = test system: Candida albicans ATCC 10231; test: Anti-fungal broth microdilution (MIC), fungus D; format: cell-based; details: yeast protocol, more than 80% inhibition, 48 h
Experimental: as §1, §2, §3, §4, §5

[5] = test system: Candida albicans ATCC 90028; test: Anti-fungal broth microdilution (MIC), fungus E; format: cell-based; details: yeast protocol, more than 80% inhibition, 48 h
Experimental: as §1, §2, §3, §4, §5

Candida albicans TS3 = test: Anti-fungal broth microdilution (MIC), fungus F; format: cell-based; details: yeast protocol, more than 80% inhibition, 48 h
Experimental: as §1, §2, §3, §4, §5

[6] = test system: Candida parapsilosis ATCC 22019; test: Anti-fungal broth microdilution (MIC), fungus G; format: cell-based; details: yeast protocol, more than 80% inhibition, 48 h
Experimental: as §1, §2, §3, §4, §5

[7] = test system: Cryptococcus neoformans ATCC 90112; test: Anti-fungal broth microdilution (MIC), fungus H; format: cell-based; details: yeast protocol, more than 80% inhibition, 48 h
Experimental: as §1, §2, §3, §4, §5

[8] = test system: Cryptococcus neoformans H99; test: Anti-fungal broth microdilution (MIC), fungus I; format: cell-based; details: yeast protocol, more than 80% inhibition, 48 h
Experimental: as §1, §2, §3, §4, §5

[9] = test system: Cryptococcus gattii ATCC 32608; test: Anti-fungal broth microdilution (MIC), fungus J; format: cell-based; details: yeast protocol, more than 80% inhibition, 48 h
Experimental: as §1, §2, §3, §4, §5

[10] = test system: RKOp21 (human colon adenocarcinoma) cells; test: XTT cytotoxicity assay, RKOp21 cells; format: cell-based; details: for RKOp21 % INH [31.6 μM]: second set of experiments; for IC50: XTT, 48 h exposure, read-out: RKOp21 [IC50 (μM)]
Experimental: (§6) Cytotoxicity of selected compounds of the invention against different mammalian cell lines was assessed as follows.
(§7) Human tumor cell lines KB/HeLa (ATCC CCL17, human cervix carcinoma), PC3 (ATCC CRL1435, human prostate carcinoma) and RKOp21 (human colon adenocarcinoma; Schmidt et al., Oncogene 2000, 19: 2423-2429) cells were used in an automated XTT screening assay for the assessment of cytotoxicity.
(§8) The XTT assay quantifies cellular metabolic activity which correlates with cell viability and cell number. Test compounds (selected compounds of the invention and known substances as controls) are dissolved in culture medium at 600 μM and added to the tumor cells in 10 different concentrations in a semi-logarithmic fashion starting from 100 μM as highest concentration.
(§9) In a second set of experiments employing PC3, RKOp21 and SKOV-3 (ATCC HTB-77, human ovary adenocarcinoma) cells, test and reference compounds were dissolved in 70% Ethanol/30% H2O in a stock concentration of 10 mM and diluted in cell culture medium to yield either 31.6 μM (PC3 and RKOp21) or 100 μM (SKOV-3) final concentration.
(§10) 48 h later cellular metabolic activity of cells treated with test compounds is quantified by measurement of the absorbance at 490 nm (conversion of XTT dye) in comparison to untreated control cells (100% viability).
(§11) KB/HeLa and PC3 cells were cultivated in RPMI 1640 medium (Gibco, Cat. No. 42401-018) supplemented with 10% heat inactivated fetal calf serum (FCS, Biochrom AG, Cat. No. S0115), 2 mM L-glutamine (Gibco, Cat. No. 25030-24) and 2% Penicillin-Streptomycin (PenStrep, Gibco, Cat. No. 15140-122). RKOp21 cells were grown in DMEM+GlutaMAXTM-I medium (Gibco, Cat. No. 61965-026) supplemented with 10% heat inactivated fetal calf serum (FCS, Biochrom AG, Cat. No. S0115), 2 mM L-glutamine (Gibco, Cat. No. 25030-24), 2% Penicillin-Streptomycin (PenStrep, Gibco, Cat. No. 15140-122) and 1% 1M HEPES (Gibco, Cat. No. 15630-056). All cells were cultured at 37° C. in 5% CO2 humidified air.
(§12) On the first day of the experiment cells were harvested from exponential phase cultures by trypsination, counted and plated into 96 well flat-bottom micro titer plates depending on the cell line as listed below:
(§13) After a 24 h recovery to allow the cells to resume exponential growth, the test compounds were diluted immediately prior to use and transferred in 25 μl volume to the wells.
(§14) Following 2 days of continuous drug exposure 50 μl of freshly prepared XTT-PMS solution {2% 0.386 mg/ml PMS (N-Methyl Dibenzopyrazine Methylsulphate; Sigma, Cat. No. P9625) in PBS+98% 1 mg/ml XTT (Sodium 2,3-bis(2-methoxy-4-nitro-5-sulfophenyl)-5-[(phenylamino)carbonyl]-2H-Tetrazolium; Serva, Cat. No. 38450) in RPMI 1640 medium without phenol red} was added to the wells. To measure the proportion of living cells, the cells were incubated for 3 h with XTT-PMS reagent at 37° C., 5% CO2, humidified atmosphere allowing to form the formazan salt. The amount of soluble formazan salt produced by cellular reduction of XTT is quantified by measuring the absorbance at 490 nm using the Biomek® 2000 ELISA plate reader. %-inhibition (cytotoxicity) of each test compound was calculated in relation to untreated control cells. Inhibition curves were generated and IC50 values calculated by using GraphPad Prism.

[11] = test system: PC3 (human prostate carcinoma) cells; test: XTT cytotoxicity assay, PC3 cells; format: cell-based; details: for PC3 % INH [31.6 μM]: second set of experiments; for IC50: XTT, 48 h exposure, read-out: PC3 [IC50 (μM)]
Experimental: as §6, §7, §8, §9, §10, §11, §12, §13, §14

[12] = test system: KB/HeLa (human cervix carcinoma) cells; test: XTT cytotoxicity assay, KB/HeLa cells; format: cell-based; details: XTT, 48 h exposure, read-out: KB/HELA [IC50 (μM)]
Experimental: as §6, §7, §8, §10, §11, §12, §13, §14

[13] = test system: SKOV-3 (human ovary adenocarcinoma) cells; test: XTT cytotoxicity assay, SKOV-3 cells; format: cell-based; details: second set of experiments
Experimental: On the first day of the experiment cells were harvested from exponential phase cultures by trypsination, counted and plated into 96 well flat-bottom micro titer plates depending on the cell line as listed below: [table] After a 24 h recovery to allow the cells to resume exponential growth, the test compounds were diluted immediately prior to use and transferred in 25 μl volume to the wells. Following 2 days of continuous drug exposure 50 μl of freshly prepared XTT-PMS solution {2% 0.386 mg/ml PMS (N-Methyl Dibenzopyrazine Methylsulphate; Sigma, Cat. No. […] Serva, Cat. No. 38450) in RPMI 1640 medium without phenol red} was added to the wells. To measure the proportion of living cells, the cells were incubated for 3 h with XTT-PMS reagent at 37° C., 5% CO2, humidified atmosphere allowing to form the formazan salt. […] Inhibition curves were generated and IC50 values calculated by using GraphPad Prism.

[14] = test system: PC3, RKOp21 and SKOV-3 cell lines; test: XTT cytotoxicity assay, mean over all three cell lines; format: cell-based, human; details: mean value over all three cell lines
Experimental: Following 2 days of continuous drug exposure 50 μl of freshly prepared XTT-PMS solution {2% 0.386 mg/ml PMS (N-Methyl Dibenzopyrazine Methylsulphate; Sigma, Cat. No. […] Serva, Cat. No. 38450) in RPMI 1640 medium without phenol red} was added to the wells. To measure the proportion of living cells, the cells were incubated for 3 h with XTT-PMS reagent at 37° C., 5% CO2, humidified atmosphere allowing to form the formazan salt. […] Inhibition curves were generated and IC50 values calculated by using GraphPad Prism. In the following table 7 cytotoxicity results (% inhibition of cell growth) obtained in the second set of experiments for selected compounds of the invention are presented in comparison to examples of the prior art (perifosine, miltefosine). The results presented are individual values for the respective cell line as well as the mean value over all three cell lines tested.

[15] = test system: Moraxella catarrhalis DMS 11994 (ATCC 43617); test: Anti-bacterial bouillon microdilution assay (MIC), bacterium D; format: cell-based; details: ATCC43617, 24 h
Experimental: Selected compounds of the invention were tested in a bouillon microdilution assay method according to the DIN 58940 (www.din.de) guidelines for determination of susceptibility of bacterial strains with regard to cell growth inhibition. The assay method quantifies bacterial cell growth which corresponds to the turbidity of the liquid culture medium by photometric measurement carried out at 595 nm.
The method of MIC determination was performed according to DIN 58940-5. The volumina were adapted according to the microdilution method as described in DIN 58940-7 guideline.
Dependent on water solubility, compounds of the invention were dissolved either in water or ethanol in a concentration of 10 mg/ml. Subsequently, the stock was further diluted in water to a concentration of 512 μg/ml. The following serial dilutions (factor 2) were performed in water resulting in the following […] testing concentrations: 256 μg/ml, 128 μg/ml, 64 μg/ml, 32 μg/ml, 16 μg/ml, 8 μg/ml, 4 μg/ml, 2 μg/ml, 1 μg/ml, 0.5 μg/ml, 0.25 μg/ml and 0.125 μg/ml. Diluted compounds of the invention were transferred in 100 μl volume to the microtiter plate wells.
Pre-cultures of bacteria were grown in appropriate liquid media (refer to ATCC webpage, www.atcc.org) and afterwards were inoculated in corresponding liquid medium. 100 μl of the inoculums [adjusted to an amount of app. 1×10^6 microorganisms per ml (range of 10^5-10^8 microorganisms per ml)] were added to each of the testing compound concentrations and cultivated under the appropriate conditions.
Before and after incubation, bacterial growth was determined by photometric analysis against a positive control containing growing bacteria without compound and a sterile/negative control containing only the medium.

SMILES | RKOp21 % INH [31.6 μM] [10] [%] | IC50 [10] [µM] | PC3 % INH [31.6 μM] [11] [%] | IC50 [11] [µM] | IC50 [12] [µM] | SKOV-3 % INH [100 μM] [13] [%] | Mean % INH [14] [%] | further results
CCCCCCCCCCCCCCCCOCCCOP(=O)([O-])OCC[N+](C)(C)C [Compound 8, Phosphoric acid 3-hexadecyloxy-propyl ester 2-trimethyl-ammonium-ethyl ester] | – | – | – | – | – | – | – | MIC [1]: 2 µg/mL; MIC [2]: 2 µg/mL; MIC [3]: 2 µg/mL; MIC [4]: 0.75 µg/mL; MIC [5]: 0.75 µg/mL; MIC (Candida albicans TS3): 1 µg/mL; MIC [6]: 0.75 µg/mL; MIC [7]: 2 µg/mL; MIC [8]: 1.5 µg/mL; MIC [9]: 0.75 µg/mL
CCCCCCCCC=CCCCCCCCCOP(=O)(O)OCCN1CCCCC1 [Compound 19] | 53.4 | > 100 | 16.2 | > 100 | > 100 | 26.9 | 32.2 | –
CCCCCCCCCCOCCOCCOP(=O)([O-])OCC[N+]1(C)CCCCC1 [Compound 20] | −12.4 | > 100 | 13.4 | > 100 | > 100 | −6.1 | −1.7 | –
CCCCCCCCCCCCCCCCCCOP(=O)(O)OCCn1ccnc1 [Compound 67] | – | – | – | – | – | – | – | IC50 ([10]; Homo sapiens): > 100 µM; IC50 ([11]; Homo sapiens, PC-3): > 100 µM; IC50 ([12]; Homo sapiens, HeLa): > 100 µM; MIC [15]: 8 µg/mL (≈ 18 µM)

Source: patent publication US20070167408A1, “NOVEL ALKYL PHOSPHOLIPID DERIVATIVES WITH REDUCED CYTOTOXICITY AND USES THEREOF” (ZENTARIS GmbH, priority 2005, published 2007)
